According to patent US12590338B2, “Method and device for detection of ampicillin-resistant non-typhoidal Salmonella” (priority 2018, dated 2026):

Tested on: NTS clinical isolates
Test: Antibiotics susceptibility test to ampicillin (CLSI disc inhibition zone and/or MIC); also: key: R = Resistant to ampicillin; S = Susceptible to ampicillin
Format: cell-based, non-typhoidal Salmonella
Description: Before the NGS study, the antimicrobial susceptibility to ampicillin in the 169 isolates was re-confirmed using the disc inhibition zones or MICs (FIG. 1). Then, the bacterial DNAs were extracted from 53 NTS isolates and NGS was performed using the Illumina© MiSeq sequencer. Subsequently, the NTS serotypes of 53 NTS clinical isolates were confirmed by multilocus sequence typing (MLST) as shown in Table 1. The big genomic data were analyzed to examine presence of plasmid-mediated genes or genetic mutations in the bacterial genome of Salmonella spp. and other bacteria reported in the PubMed, ARG-ANNOT, CARD, and ResFinder (FIG. 1).
The 169 NTS clinical isolates were tested for antimicrobial susceptibility based on (CLSI) guidelines. Briefly, bacteria were spread onto Mueller-Hinton MH agar, and co-incubated with antimicrobial disks (Oxoid, Cambridge, UK) of ampicillin individually at 37° C. for 18 hours. Another alternative is measurement of the minimum inhibitory concentrations (MICs) of ampicillin in serial dilutions of ampicillin co-cultured with bacterial solution of NTS isolates. Finally, the resistance to ampicillin in NTS isolates was determined according to the diameter of inhibition zone (≤13 mm) and/or the MIC of ampicillin>16 μg/mL according to the guideline of CLSI.

Measured: AMP-R

CC1(C)S[C@@H]2[C@H](NC(=O)[C@H](N)c3ccccc3)C(=O)N2[C@H]1C(=O)O [ampicillin]
S: NTS isolate SH-12, serotype Amsterdam | NTS isolate SH-A1, serotype Enteritidis | NTS isolate SH-C2, serotype Newport | NTS isolate SH-C3, serotype Enteritidis | NTS isolate SH-D2, serotype Enteritidis | NTS isolate SH-D4, serotype Enteritidis | NTS isolate SH-D5, serotype Typhimurium | NTS isolate SH-E2, serotype Virchow | NTS isolate SH-E3, serotype Newport | NTS isolate SH-G1, serotype Stanley | NTS isolate SH-H3, serotype Derby
R: NTS isolate SH-B2, serotype Enteritidis | NTS isolate SH-B5, serotype Enteritidis | NTS isolate SH-C4, serotype Typhimurium | NTS isolate SH-E1, serotype Unknown | NTS isolate SH-F4, serotype Typhimurium | NTS isolate SH-F5, serotype Enteritidis | NTS isolate SH-G2, serotype Typhimurium | NTS isolate SH-G3, serotype Enteritidis | NTS isolate SH-G5, serotype Albany | NTS isolate SH-H4, serotype Newport | NTS isolate TSAR-C1, serotype Schwarzengrund | NTS isolate TSAR-C2, serotype Schwarzengrund | NTS isolate TSAR-C3, serotype Schwarzengrund | NTS isolate TSAR-C4, serotype Typhimurium | NTS isolate TSAR-C5, serotype Choleraesuis | NTS isolate TSAR-C6, serotype Typhimurium | NTS isolate TSAR-C7, serotype Typhimurium | NTS isolate TSAR-C10, serotype Enteritidis | NTS isolate TSAR-C13, serotype Stanley | NTS isolate TSAR-C16, serotype Typhimurium | NTS isolate TSAR-C19, serotype Stanley | NTS isolate TSAR-E5, serotype Choleraesuis | NTS isolate TSAR-E9, serotype Choleraesuis | NTS isolate TSAR-E10, serotype Typhimurium | NTS isolate TSAR-E16, serotype Virchow | NTS isolate TSAR-E18, serotype Meleagridis | NTS isolate TSAR-E19, serotype Newport | NTS isolate TSAR-E20, serotype Typhimurium | NTS isolate TSAR-N5, serotype Typhimurium | NTS isolate TSAR-N8, serotype Typhimurium | NTS isolate TSAR-N9, serotype Montevideo | NTS isolate TSAR-N15, serotype Schwarzengrund | NTS isolate TSAR-N16, serotype Agona | NTS isolate TSAR-N19, serotype Enteritidis | NTS isolate TSAR-S13, serotype Albany | NTS isolate TSAR-S14, serotype Typhimurium | NTS isolate TSAR-S15, serotype Enteritidis | NTS isolate TSAR-S16, serotype Agona | NTS isolate TSAR-S17, serotype Newport | NTS isolate TSAR-S18, serotype Newport | NTS isolate TSAR-S19, serotype Agona | NTS isolate TSAR-S20, serotype Livingstone
